Reference: ChEMBL document CHEMBL1201862, “PubChem BioAssay data set” (2004)
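All cell lines were grown in 96-well plates and treated with compound for 48 hours. Abbreviation: GI50, concentration required for 50% inhibition of growth.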 Active and inactive are the calls of the source. No stated cut-off is given here; in the data, active = GI50 up to about 1.1 µM and inactive = higher.

What was measured:
Assay in all cases: NCI anticancer screen, dose series, 48 h
786-0 = system: 786-0
A549 = system: A549
ACHN = system: ACHN
CAKI-1 = system: CAKI-1
CCRF-CEM = system: CCRF-CEM
COLO 205 = system: COLO 205
DLD-1 = system: DLD-1
DMS-114 = system: DMS-114
DMS-273 = system: DMS-273
EKVX = system: EKVX
HCC 2998 = system: HCC 2998
HCT-116 = system: HCT-116
HCT-15 = system: HCT-15
HL-60 = system: HL-60
HOP-18 = system: HOP-18
HOP-62 = system: HOP-62
HOP-92 = system: HOP-92
HT-29 = system: HT-29
IGROV-1 = system: IGROV-1
K562 = system: K562
KM-20L2 = system: KM-20L2
KM12 = system: KM12
LOX IMVI = system: LOX IMVI
LXFL 529 = system: LXFL 529
M19-MEL = system: M19-MEL
MOLT-4 = system: MOLT-4
Malme-3M = system: Malme-3M
NCI-H226 = system: NCI-H226
NCI-H23 = system: NCI-H23
NCI-H460 = system: NCI-H460
NCI-H522 = system: NCI-H522
OVCAR-3 = system: OVCAR-3
OVCAR-5 = system: OVCAR-5
OVCAR-8 = system: OVCAR-8
RPMI-8226 = system: RPMI-8226
RXF 393 = system: RXF 393
RXF 631 = system: RXF 631
SF-268 = system: SF-268
SF-295 = system: SF-295
SF-539 = system: SF-539
SK-MEL-28 = system: SK-MEL-28
SK-MEL-2 = system: SK-MEL-2
SK-MEL-5 = system: SK-MEL-5
SK-OV-3 = system: SK-OV-3
SN12C = system: SN12C
SNB-19 = system: SNB-19
SR = system: SR
SW-620 = system: SW-620
TK-10 = system: TK-10
U-251 = system: U-251
UACC-257 = system: UACC-257
UACC-62 = system: UACC-62
A498 = system: A498
M14 = system: M14
OVCAR-4 = system: OVCAR-4
SNB-75 = system: SNB-75
UO-31 = system: UO-31
SNB-78 = system: SNB-78

SMILES: O=CC1=CCCN(CCc2c[nH]c3ccccc23)C1
- GI50 (786-0): 62.2 µM (inactive)
- GI50 (A549): 186 µM (inactive)
- GI50 (ACHN): 70.6 µM (inactive)
- GI50 (CAKI-1): 75.5 µM (inactive)
- GI50 (CCRF-CEM): 23.4 µM (inactive)
- GI50 (COLO 205): 77.6 µM (inactive)
- GI50 (DLD-1): 53.5 µM (inactive)
- GI50 (DMS-114): 40.6 µM (inactive)
- GI50 (DMS-273): 46.2 µM (inactive)
- GI50 (EKVX): 84.7 µM (inactive)
- GI50 (HCC 2998): 71.6 µM (inactive)
- GI50 (HCT-116): 28.2 µM (inactive)
- GI50 (HCT-15): 21.7 µM
- GI50 (HL-60): 11.2 µM (inactive)
- GI50 (HOP-18): 57.3 µM (inactive)
- GI50 (HOP-62): 52.6 µM (inactive)
- GI50 (HOP-92): 64.9 µM (inactive)
- GI50 (HT-29): 56.4 µM (inactive)
- GI50 (IGROV-1): 86.5 µM (inactive)
- GI50 (K562): 23.6 µM (inactive)
- GI50 (KM-20L2): 65.8 µM (inactive)
- GI50 (KM12): 56.9 µM (inactive)
- GI50 (LOX IMVI): 6.47 µM (inactive)
- GI50 (LXFL 529): 11.2 µM (inactive)
- GI50 (M19-MEL): 72.8 µM (inactive)
- GI50 (MOLT-4): 13.2 µM (inactive)
- GI50 (Malme-3M): 64.7 µM (inactive)
- GI50 (NCI-H226): 46.3 µM (inactive)
- GI50 (NCI-H23): 47.6 µM (inactive)
- GI50 (NCI-H460): 54.6 µM (inactive)
- GI50 (NCI-H522): 69.3 µM (inactive)
- GI50 (OVCAR-3): 42.6 µM (inactive)
- GI50 (OVCAR-5): 71.3 µM (inactive)
- GI50 (OVCAR-8): 48.5 µM (inactive)
- GI50 (RPMI-8226): 37.2 µM (inactive)
- GI50 (RXF 393): 30.5 µM (inactive)
- GI50 (RXF 631): 47 µM (inactive)
- GI50 (SF-268): 68.2 µM (inactive)
- GI50 (SF-295): 57.3 µM (inactive)
- GI50 (SF-539): 54 µM (inactive)
- GI50 (SK-MEL-28): 11.9 µM (inactive)
- GI50 (SK-MEL-2): 63.5 µM (inactive)
- GI50 (SK-MEL-5): 62.8 µM (inactive)
- GI50 (SK-OV-3): 86.5 µM (inactive)
- GI50 (SN12C): 46.2 µM (inactive)
- GI50 (SNB-19): 45.2 µM (inactive)
- GI50 (SR): 11.8 µM (inactive)
- GI50 (SW-620): 17.6 µM (inactive)
- GI50 (TK-10): 76.6 µM (inactive)
- GI50 (U-251): 52.5 µM (inactive)
- GI50 (UACC-257): 63.8 µM (inactive)
- GI50 (UACC-62): 58.3 µM (inactive)

SMILES: Cn1cccc1/C=C/c1cc(Br)c(/C=C/c2cccn2C)cc1Br
- GI50 (786-0): 6.12 µM (inactive)
- GI50 (A498): 21 µM (inactive)
- GI50 (A549): 11.9 µM (inactive)
- GI50 (ACHN): 10.2 µM (inactive)
- GI50 (CAKI-1): 15.3 µM (inactive)
- GI50 (CCRF-CEM): 15.2 µM (inactive)
- GI50 (COLO 205): 13.2 µM (inactive)
- GI50 (DLD-1): 0.643 µM (active)
- GI50 (DMS-114): 11.6 µM (inactive)
- GI50 (DMS-273): 18.5 µM (inactive)
- GI50 (EKVX): 11.1 µM (inactive)
- GI50 (HCC 2998): 2.62 µM (inactive)
- GI50 (HCT-116): 16.3 µM (inactive)
- GI50 (HCT-15): 8.75 µM
- GI50 (HL-60): 13.6 µM (inactive)
- GI50 (HOP-18): 5 µM (inactive)
- GI50 (HOP-92): 11.7 µM (inactive)
- GI50 (HT-29): 18.6 µM (inactive)
- GI50 (IGROV-1): 15.8 µM (inactive)
- GI50 (K562): 16.7 µM (inactive)
- GI50 (KM-20L2): 16.3 µM (inactive)
- GI50 (KM12): 7.23 µM (inactive)
- GI50 (LOX IMVI): 18.3 µM (inactive)
- GI50 (LXFL 529): 12.3 µM (inactive)
- GI50 (M14): 19 µM (inactive)
- GI50 (M19-MEL): 18.4 µM (inactive)
- GI50 (MOLT-4): 11.6 µM (inactive)
- GI50 (Malme-3M): 10.4 µM (inactive)
- GI50 (NCI-H226): 12.3 µM (inactive)
- GI50 (NCI-H23): > 10 µM (inactive)
- GI50 (NCI-H460): 17.9 µM (inactive)
- GI50 (NCI-H522): 14.5 µM (inactive)
- GI50 (OVCAR-3): 16.1 µM (inactive)
- GI50 (OVCAR-4): 5.4 µM (inactive)
- GI50 (OVCAR-5): 16.8 µM (inactive)
- GI50 (OVCAR-8): > 10 µM (inactive)
- GI50 (RPMI-8226): 15.2 µM (inactive)
- GI50 (RXF 393): 12.6 µM (inactive)
- GI50 (RXF 631): 13.9 µM (inactive)
- GI50 (SF-268): 20.5 µM (inactive)
- GI50 (SF-295): 20.9 µM (inactive)
- GI50 (SF-539): 14.6 µM (inactive)
- GI50 (SK-MEL-28): 15.5 µM (inactive)
- GI50 (SK-MEL-2): 14.6 µM (inactive)
- GI50 (SK-MEL-5): 15.2 µM (inactive)
- GI50 (SK-OV-3): 14.8 µM (inactive)
- GI50 (SN12C): 21 µM (inactive)
- GI50 (SNB-19): 24.2 µM (inactive)
- GI50 (SNB-75): 3.13 µM (inactive)
- GI50 (SW-620): 20.9 µM (inactive)
- GI50 (TK-10): 22.5 µM (inactive)
- GI50 (U-251): 13 µM (inactive)
- GI50 (UACC-257): 30.6 µM (inactive)
- GI50 (UACC-62): 13.8 µM (inactive)
- GI50 (UO-31): 15.2 µM (inactive)

SMILES: Cc1c2n(c3ccccc13)CC1CON(C)C21 (configuration not stated)
- GI50 (786-0): > 100 µM (inactive)
- GI50 (CAKI-1): > 100 µM (inactive)
- GI50 (CCRF-CEM): > 100 µM (inactive)
- GI50 (COLO 205): > 100 µM (inactive)
- GI50 (DLD-1): > 100 µM (inactive)
- GI50 (DMS-114): > 100 µM (inactive)
- GI50 (DMS-273): > 100 µM (inactive)
- GI50 (HCC 2998): > 100 µM (inactive)
- GI50 (HCT-116): > 100 µM (inactive)
- GI50 (HL-60): > 100 µM (inactive)
- GI50 (HOP-62): > 100 µM (inactive)
- GI50 (HOP-92): > 100 µM (inactive)
- GI50 (IGROV-1): > 100 µM (inactive)
- GI50 (K562): > 100 µM (inactive)
- GI50 (LXFL 529): > 100 µM (inactive)
- GI50 (M14): > 100 µM (inactive)
- GI50 (M19-MEL): > 100 µM (inactive)
- GI50 (MOLT-4): > 100 µM (inactive)
- GI50 (Malme-3M): > 100 µM (inactive)
- GI50 (NCI-H226): > 100 µM (inactive)
- GI50 (NCI-H23): > 100 µM (inactive)
- GI50 (NCI-H522): > 100 µM (inactive)
- GI50 (OVCAR-4): > 100 µM (inactive)
- GI50 (RPMI-8226): > 100 µM (inactive)
- GI50 (RXF 631): > 100 µM (inactive)
- GI50 (SF-268): > 100 µM (inactive)
- GI50 (SF-539): > 100 µM (inactive)
- GI50 (SK-MEL-28): > 100 µM (inactive)
- GI50 (SK-MEL-2): > 100 µM (inactive)
- GI50 (SK-OV-3): > 100 µM (inactive)
- GI50 (SNB-75): > 100 µM (inactive)
- GI50 (SNB-78): > 100 µM (inactive)
- GI50 (SR): > 100 µM (inactive)
- GI50 (UACC-62): > 100 µM (inactive)
- GI50 (UO-31): > 100 µM (inactive)
